The record followed here is publication PMC10341573, “Design, Synthesis, and Biological Evaluation of Novel Quinazolin-4(3H)-One-Based Histone Deacetylase 6 (HDAC6) Inhibitors for Anticancer Activity” (International Journal of Molecular Sciences, 2023).

One assay deals with T1, HDAC4 (Homo sapiens, UniProt P56524).
T1 construct: catalytic domain of HDAC4 (T648-T1057, full length: UniProt P56524); made in house; host or cells: E. coli BL21(DE3), pET14b vector
Description: HDAC enzyme activity assay (fluorogenic, Boc-Lys(trifluoroacetyl)-AMC), HDAC4. Format: biochemical. As to conditions: class IIa HDAC4; mean ± SD, triplicate.

Another assay concerns the target T2, HDAC8 (Homo sapiens, UniProt Q9BY41).
T2 construct: codon-optimized full-length HDAC8; made in house; host or cells: E. coli BL21(DE3), pET14b vector
T2 sequence (Q9BY41 1-377): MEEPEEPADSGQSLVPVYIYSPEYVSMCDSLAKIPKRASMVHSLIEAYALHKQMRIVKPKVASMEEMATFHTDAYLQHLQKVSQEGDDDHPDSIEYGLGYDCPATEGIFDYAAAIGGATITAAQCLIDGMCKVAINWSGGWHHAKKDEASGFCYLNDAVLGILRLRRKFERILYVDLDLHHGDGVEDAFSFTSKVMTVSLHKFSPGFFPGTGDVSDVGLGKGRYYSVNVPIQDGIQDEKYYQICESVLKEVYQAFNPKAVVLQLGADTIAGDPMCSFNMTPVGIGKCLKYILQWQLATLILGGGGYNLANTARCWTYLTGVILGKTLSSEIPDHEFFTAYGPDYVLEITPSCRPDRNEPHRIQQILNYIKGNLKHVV
Description: HDAC enzyme activity assay (fluorogenic, Boc-Lys(trifluoroacetyl)-AMC), HDAC8. It is filed as biochemical. The following applies: class I HDAC8; mean ± SD, triplicate.

The next assay deals with MCF7. Description: MTT cell proliferation assay, MCF7. Format: cell-based, human. As to conditions: MTT, 72 h, mean ± SD, triplicate, read-out: IC50 ± SD MCF7.
The test system of the next assay is HEK 293. Put plainly: MTT cell proliferation assay, HEK 293. It is filed as cell-based, human. The following applies: Homo sapiens, HEK293; MTT, 72 h; mean ± SD, triplicate; read-out: IC50 ± SD HEK 293.
A further assay relates to acetyl α-tubulin. Put plainly: Western blot of acetyl α-tubulin in MCF7 and HCT-116 cells. It is filed as cell-based, human. The following applies: 24 h. How it is done:
HDAC6 plays a crucial role in chromatin modulation and deacetylation of α-tubulin, contributing to the expression of oncogenes driving tumorigenesis. Over time, numerous studies have shown HDAC inhibitors (HDACi) as potential anticancer therapeutics. The HDAC6-inhibitory effect of compound 5c was evaluated by analyzing the protein level expression of acetyl α-tubulin in MCF7 and HCT-116 cells treated with 5c by Western blotting.
(§1) On the basis of the results obtained from the cell proliferation assay, further experiments were conducted on MCF7 and HCT-116 cells treated with compound 5c. The cells were harvested, and 0.1 × 10^6 cells were seeded in a 12-well cell culture plate and allowed to adhere properly. The cells were then incubated with 0.1 μM and 1 μM concentrations of compound 5c for 24 h. Cells were pelleted in 1× PBS and lysed using ice-cold RIPA buffer. The protein concentration of the lysate was quantified using the Bradford assay and an equal concentration of sample proteins was run on 12% SDS-PAGE and transferred onto 0.45 μm PVDF membrane (Millipore (St. Louis, MO, USA), Immobilon IPVH00010). […]

A further assay relates to acetyl-H3. Put plainly: Western blot of acetyl-H3 in MCF7 and HCT-116 cells. It is filed as cell-based, human. The following applies: compared to untreated control.
In assay [1] the test system is MCF7 and HCT-116 cells. Put plainly: Acridine orange staining and fluorescence imaging. Format: cell-based, human. The following applies: 48 h. The text has this:
(§2) The control had intact nuclei, as depicted by the green fluorescence due to AO binding to dsDNA, in contrast to the apoptotic nuclei of 5c-treated cells depicted by orange fluorescence due to AO staining of ssDNA and RNA. This observation was supported by the protein expression of cleaved poly (ADP-ribose) polymerase (PARP), which represents the degree of apoptosis in cells, as shown in Figure 9B. […] Acridine orange (AO) staining can also be influenced by autophagosomal pH.

In the next assay the test system is cleaved PARP. Description: Western blot of cleaved PARP. As to conditions: MCF7 and HCT-116 cells, compared to untreated cells. Format: cell-based, human.
Description: as §2, §1

Another assay concerns MCF7 cells. Description: Cell-cycle analysis by flow cytometry. Format: cell-based, human. How it is done: Cell-cycle distribution analysis was carried out further to evaluate the effect of 5c on HDAC inhibition, as HDCA inhibitors are mainly known to target genes regulating the cell cycle. The 5c-treated MCF7 cells were subjected to cell-cycle analysis by flow cytometry.
Cell-cycle analysis was carried out using a cell-cycle analysis kit (Sigma-Aldrich, MAK344) according to the protocol given by the manufacturer. MCF7 cells were treated with DMSO or 0.1 μM and 1 μM concentrations of compound 5c and incubated for 48 h. Cells were then trypsinized and pelleted down. The pellets were washed with 1× cell-cycle buffer and fixed in ice-cold 70% ethanol for 1 h at 4 °C. The fixated cells were treated with ribonuclease A (RNase A) and stained with PI at room temperature for 30 min. Analysis was carried out using FlowJo 10.7.2..

In assay [2] the test system is MCF7 and HCT-116 cells. Put plainly: Clonogenic assay. It is filed as cell-based, human. As to conditions: 12–14 days. Here is the method:
To evaluate the effect of compound 5c on the cell survival of MCF7 and HCT-116 cells, a clonogenic assay was performed. Colony formation of MCF7 and HCT-116 cells was inhibited by compound 5c in a dose-dependent manner, compared to the control cells treated with DMSO (Figure 11).
MCF7 and HCT-116 cells were seeded in a six-well culture plate at a density of 500 cells/well. After cells adhered completely, they were incubated in the culture medium with DMSO, 0.1 μM 5c, and 1 μM 5c. The medium, along with the treatment, was replenished every 3 days for 12–14 days. The colonies formed were fixed with a 3:1 ratio of methanol and glacial acetic acid for 10 min. The wells were then washed with 1× PBS, and cells were stained with 0.5% v/v crystal violet solution for 10 min [55]. Excess stain was washed off in running water, and images were taken after proper drying. Colonies were counted visually or using ImageJ software, NIH (Version 1.53K). The stain taken up by the colonies was dissolved in 0.1% SDS, and absorbance was read at 540 nm. Graphs were plotted using GraphPad Prism 8.0.2.

Like-named read-outs stand apart in the source and are kept apart here.

T1 sequence (P56524 648-1057): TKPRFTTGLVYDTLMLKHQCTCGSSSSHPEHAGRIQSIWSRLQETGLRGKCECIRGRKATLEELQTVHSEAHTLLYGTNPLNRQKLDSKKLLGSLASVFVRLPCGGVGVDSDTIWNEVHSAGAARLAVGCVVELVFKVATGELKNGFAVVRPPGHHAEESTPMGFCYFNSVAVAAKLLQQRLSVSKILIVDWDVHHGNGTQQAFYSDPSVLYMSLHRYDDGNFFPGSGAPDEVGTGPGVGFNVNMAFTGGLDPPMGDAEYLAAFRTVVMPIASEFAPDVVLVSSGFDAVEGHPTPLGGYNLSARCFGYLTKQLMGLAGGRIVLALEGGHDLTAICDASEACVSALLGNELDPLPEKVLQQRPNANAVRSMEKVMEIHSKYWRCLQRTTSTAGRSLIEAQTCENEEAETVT

Take `Cc1ccc(-n2c(SCc3ccc(C(=O)NO)cc3)nc3ccccc3c2=O)cc1` [Compound 5c, N-hydroxy-4-(((4-oxo-3-(p-tolyl)-3,4-dihydroquinazolin-2-yl)thio)methyl)benzamide]: the IC50 was determined as 0.72 ± 0.21 µM against HDAC4; 2.3 ± 0.5 µM on HDAC8; 13.7 µM with MCF7 (Homo sapiens, MCF7, 72 h); 13.7 ± 0.83 µM in the assay with MCF7; 35.1 ± 18.7 µM in the assay on HEK 293. Also, the “concentration at which heightened acetylation of α-tubulin starts” value in the assay on acetyl α-tubulin is 0.1 to 1 µM. The “acetylation of H3” value with acetyl-H3 is reported as “increase in acetylation of H3, but only at a higher concentration”. In addition, the “apoptosis by acridine orange staining” value in the assay with MCF7 and HCT-116 cells [1] is “evidential apoptosis”. In addition, the “protein expression of cleaved PARP” value in the assay with cleaved PARP is on record as “significantly higher”. For the same molecule, the “cell population in G2/M phase” value in the assay with MCF7 cells (MCF7, 0.1 μM, 48 h) is reported as “significant increase”. In the assay on MCF7 cells (MCF7, 0.1 μM, 48 h), the “cell population in the G1 and S phases” value is recorded as “slight reduction”. Further, the “effect on cells at 1 μM” value in the assay with MCF7 cells (MCF7, 1 μM) was “necrosis and cell death”. The number of colonies result in the assay with MCF7 and HCT-116 cells [2] (MCF7 and HCT-116, 0.1 μM) is recorded as “significantly reduced”. For the same molecule, the “cell anchorage and growth” value in the assay with MCF7 and HCT-116 cells [2] (MCF7 and HCT-116, 1 μM) is “almost completely arrested”.
